Results reported in PMC6274369, “Novel Anthranilamide-Based FXa Inhibitors: Drug Design, Synthesis and Biological Evaluation” (Molecules, 2016).

What was measured:
human FXa = target: T1, human FXa (Homo sapiens, UniProt P00742); test: Inhibition of FXa in vitro (chromogenic substrate CS-11(22)); format: biochemical; conditions: for IC50: chromogenic substrate, 37 °C, pH 7.4; for Ki: Km = 2.4
T1 construct: purchased Hyphen BioMed, Paris, France
Description: The inhibition of FXa was measured using human FXa (Hyphen BioMed, Paris, France) and chromogenic substrate CS-11(22) (Hyphen BioMed, Paris, France) in 384-well microtiter plates at room temperature. […] 2 μL of FXa (56.8 nM), 16 μL of Tris buffer (adjust to pH 7.4 with HCl containing 0.3 M NaCl and 50 mM Tris) and 3 μL of test compound were added to the well, respectively. The negative control was composed of the same mixed solutions except replacing test compound with DMSO. […] After incubated at 37 °C for 5 min, 8 μL of FXa substrate solution (3.5 mM) was added and then incubated at 37 °C for 25 min. The FXa activity was measured at 405 nm using a SpectraMax M5 (Molecular Devices, Sunnyvale, CA, USA). The IC50 was calculated by the software named SPSS (IBM, North Castle, NY, USA) and the Probit function in it.

rat plasma = test: Prothrombin time (PT) assay in rat plasma; format: biochemical; conditions: concentration doubling prothrombin time
Description: (§1) A commercially available automatic coagulometer (Steellex Science Instrument Co., Ltd., Beijing, China) was employed to measure PT. The clotting times were also measured using the instrument itself, in accordance with the manufacturer’s instructions. Increasing concentrations of inhibitor or solvent were added to rat (Sprague-Dawley rats, Shanchuanhong Experimental Animals Co., Ltd., Tianjin, China) and human plasma and incubated for 3 min at 37 °C. Prothrombin time (PT) was determined by automatic coagulometer.

FXa = conditions: Figure 4, design basis; no reference given; cited from earlier work
thrombin = test system: thrombin; design: method as in PMID 16305517; conditions: read-out: selectivity against thrombin (IC50); cited from earlier work
human plasma = test: Prothrombin time (PT) assay in human plasma; format: biochemical; conditions: concentration doubling prothrombin time
Description: as §1

human FIIa = target: T2, human FIIa (Homo sapiens, UniProt P00734); test: Thrombin inhibition in vitro (chromogenic substrate CS-01(38)); format: biochemical; conditions: tested 10 μM to 100 μM
T2 construct: purchased Hyphen BioMed, Paris, France
Description: The inhibition of thrombin was measured using human FIIa (Hyphen BioMed, Paris, France) and chromogenic substrate CS-01(38) (Hyphen BioMed, Paris, France) in 384-well microtiter plates at room temperature. […] 2 μL of FIIa (3 NIH/mL), 20 μL of Tris buffer (adjust to pH 7.4 with HCl) containing 0.3 M NaCl and 50 mM Tris and 2 μL of test compound were added to the well, respectively. The negative control was composed of the same mixed solutions except replacing test compound with DMSO. The positive control was composed of the same mixed solutions except replacing test compound with Rivaroxaban. After incubated at 37 °C for 5 min, 3 μL of FIIa substrate solution (4 mM) was added and then incubated at 37 °C for 25 min. The FIIa activity was measured at 405 nm using a SpectraMax M5 (Molecular Devices).

T1 sequence (P00742 235-488 limits assumed): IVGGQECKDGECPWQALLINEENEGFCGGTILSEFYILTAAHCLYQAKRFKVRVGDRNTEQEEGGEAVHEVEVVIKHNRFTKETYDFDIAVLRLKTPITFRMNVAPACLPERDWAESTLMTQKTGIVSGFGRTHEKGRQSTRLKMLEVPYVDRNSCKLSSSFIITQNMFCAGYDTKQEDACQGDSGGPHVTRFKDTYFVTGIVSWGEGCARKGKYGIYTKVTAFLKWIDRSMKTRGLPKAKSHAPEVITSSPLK
T1 sequence (P00742 41-179 partner limits assumed): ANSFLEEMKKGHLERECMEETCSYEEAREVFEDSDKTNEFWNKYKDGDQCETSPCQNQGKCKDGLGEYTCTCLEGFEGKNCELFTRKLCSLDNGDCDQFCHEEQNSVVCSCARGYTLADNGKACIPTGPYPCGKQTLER

IC50 (human FXa)	Compound	further results
> 1 µM	Cc1ccc(NC(=O)c2ccc(F)cc2)c(C(=O)Nc2ccc(-n3ccccc3=O)cc2)c1 [Compound 1h, 2-(4-Fluorobenzamido)-5-methyl-N-(4-(2-oxopyridin-1(2H)-yl)phenyl)benzamide]	
> 1 µM	Cc1cccc(C(=O)Nc2ccc(-n3ccccc3=O)cc2)c1NC(=O)c1ccc(Cl)cc1 [Compound 1l, 2-(4-Chlorobenzamido)-3-methyl-N-(4-(2-oxopyridin-1(2H)-yl)phenyl)benzamide]	
0.57 µM	O=C(Nc1ccc(Cl)cc1C(=O)Nc1ccc(-n2ccccc2=O)cc1)c1ccc(Cl)cc1 [Compound 1f, 5-Chloro-2-(4-chlorobenzamido)-N-(4-(2-oxopyridin-1(2H)-yl)phenyl)benzamide]	
> 1 µM	Cc1cccc(C(=O)Nc2ccc(N3CCOCC3=O)cc2)c1NC(=O)c1ccc(Cl)s1 [Compound 1v, 5-Chloro-N-(2-methyl-6-((4-(3-oxomorpholino)phenyl)carbamoyl)phenyl)thiophene-2-carboxamide]	
> 1 µM	Cc1cccc(C(=O)Nc2ccc(N3CCOCC3=O)cc2)c1NC(=O)c1ccc(F)cc1 [Compound 1w, 2-(4-Fluorobenzamido)-3-methyl-N-(4-(3-oxomorpholino)phenyl)benzamide]	
> 1 µM	Cc1ccc(NC(=O)c2ccc(Cl)cc2)c(C(=O)Nc2ccc(N3CCOCC3=O)cc2)c1 [Compound 1u, 2-(4-Chlorobenzamido)-5-methyl-N-(4-(3-oxomorpholino)phenyl)benzamide]	
0.317 µM	O=C(Nc1ccccc1C(=O)Nc1ccc(N2CCOCC2=O)cc1)c1ccc(Cl)s1 [Compound 1m, 5-Chloro-N-(2-((4-(3-oxomorpholino)phenyl)carbamoyl)phenyl)thiophene-2-carboxamide]	
0.197 µM	O=C(Nc1ccccc1C(=O)Nc1ccc(-n2ccccc2=O)cc1)c1ccc(Cl)cc1 [Compound 1c, 2-(4-Chlorobenzamido)-N-(4-(2-oxopyridin-1(2H)-yl)phenyl)benzamide]	
0.511 µM	Cc1ccc(NC(=O)c2ccc(Cl)cc2)c(C(=O)Nc2ccc(-n3ccccc3=O)cc2)c1 [Compound 1i, 2-(4-Chlorobenzamido)-5-methyl-N-(4-(2-oxopyridin-1(2H)-yl)phenyl)benzamide]	
0.44 µM	O=C(Nc1ccccc1C(=O)Nc1ccc(N2CCOCC2=O)cc1)c1ccc(Cl)cc1 [Compound 1o, 2-(4-Chlorobenzamido)-N-(4-(3-oxomorpholino)phenyl)benzamide]	
	O=C(NC[C@H]1CN(c2ccc(N3CCOCC3=O)cc2)C(=O)O1)c1ccc(Cl)s1 [Rivaroxaban, reference compound]	2 × PT (μM) (Rat) (rat plasma): 0.3 µM; IC50 (FXa): […]; IC50 (thrombin): > 6.9 µM; 2 × PT (μM) (Human) (human plasma): 0.2 µM
> 1 µM	Cc1ccc(NC(=O)c2ccc(F)cc2)c(C(=O)Nc2ccc(N3CCOCC3=O)cc2)c1 [Compound 1t, 2-(4-Fluorobenzamido)-5-methyl-N-(4-(3-oxomorpholino)phenyl)benzamide]	
0.025 µM	Cc1ccc(NC(=O)c2ccc(Cl)s2)c(C(=O)Nc2ccc(-n3ccccc3=O)cc2)c1 [Compound 1g, 5-Chloro-N-(4-methyl-2-((4-(2-oxopyridin-1(2H)-yl)phenyl)carbamoyl)phenyl)thiophene-2-carboxami-de]	IC50 (human FIIa): > 10 µM; Ki (human FXa): 0.0164 µM; 2 × PT (μM) (Rat) (rat plasma): 19.7 µM; 2 × PT (μM) (Human) (human plasma): 12.8 µM
	COc1ccc(C(=O)Nc2cccc(O)c2NC(=O)c2ccc(N3CCCN(C)CC3)cc2)cc1 [Darexaban]	IC50 (FXa): 0.0546 µM
> 1 µM	O=C(Nc1ccccc1C(=O)Nc1ccc(N2CCOCC2=O)cc1)c1ccc(F)cc1 [Compound 1n, 2-(4-Fluorobenzamido)-N-(4-(3-oxomorpholino)phenyl)benzamide]	
0.111 µM	O=C(Nc1ccc(Cl)cc1C(=O)Nc1ccc(N2CCOCC2=O)cc1)c1ccc(Cl)s1 [Compound 1p, 5-Chloro-N-(4-chloro-2-((4-(3-oxomorpholino)phenyl)carbamoyl)phenyl)thiophene-2-carboxamide]	
> 1 µM	O=C(Nc1ccc(Cl)cc1C(=O)Nc1ccc(N2CCOCC2=O)cc1)c1ccc(F)cc1 [Compound 1q, 5-Chloro-2-(4-fluorobenzamido)-N-(4-(3-oxomorpholino)phenyl)benzamide]	
0.071 µM	Cc1ccc(NC(=O)c2ccc(Cl)s2)c(C(=O)Nc2ccc(N3CCOCC3=O)cc2)c1 [Compound 1s, 5-Chloro-N-(4-methyl-2-((4-(3-oxomorpholino)phenyl)carbamoyl)phenyl)thiophene-2-carboxamide]	IC50 (human FIIa): > 10 µM; Ki (human FXa): 0.0544 µM; 2 × PT (μM) (Rat) (rat plasma): 24.2 µM; 2 × PT (μM) (Human) (human plasma): 10.4 µM
> 1 µM	O=C(Nc1ccc(Cl)cc1C(=O)Nc1ccc(-n2ccccc2=O)cc1)c1ccc(F)cc1 [Compound 1e, 5-Chloro-2-(4-fluorobenzamido)-N-(4-(2-oxopyridin-1(2H)-yl)phenyl)benzamide]	
0.0302 µM	O=C(Nc1ccccc1C(=O)Nc1ccc(-n2ccccc2=O)cc1)c1ccc(Cl)s1 [Compound 1a, 5-Chloro-N-(2-((4-(2-oxopyridin-1(2H)-yl)phenyl)carbamoyl)phenyl)thiophene-2-carboxamide]	IC50 (human FIIa): > 10 µM; Ki (human FXa): 0.022 µM
0.43 µM	O=C(Nc1ccc(Cl)cc1C(=O)Nc1ccc(-n2ccccc2=O)cc1)c1ccc(Cl)s1 [Compound 1d, 5-Chloro-N-(4-chloro-2-((4-(2-oxopyridin-1(2H)-yl)phenyl)carbamoyl)phenyl)thiophene-2-carboxamide]	
0.951 µM	O=C(Nc1ccc(Cl)cc1C(=O)Nc1ccc(N2CCOCC2=O)cc1)c1ccc(Cl)cc1 [Compound 1r, 5-Chloro-2-(4-chlorobenzamido)-N-(4-(3-oxomorpholino)phenyl)benzamide]	
> 1 µM	O=C(Nc1ccccc1C(=O)Nc1ccc(-n2ccccc2=O)cc1)c1ccc(F)cc1 [Compound 1b, 2-(4-Fluorobenzamido)-N-(4-(2-oxopyridin-1(2H)-yl)phenyl)benzamide]	
> 1 µM	Cc1cccc(C(=O)Nc2ccc(-n3ccccc3=O)cc2)c1NC(=O)c1ccc(F)cc1 [Compound 1k, 2-(4-Fluorobenzamido)-3-methyl-N-(4-(2-oxopyridin-1(2H)-yl)phenyl)benzamide]	
> 1 µM	Cc1cccc(C(=O)Nc2ccc(-n3ccccc3=O)cc2)c1NC(=O)c1ccc(Cl)s1 [Compound 1j, 5-Chloro-N-(2-methyl-6-((4-(2-oxopyridin-1(2H)-yl)phenyl)carbamoyl)phenyl)thiophene-2-carboxami-de]	
> 1 µM	Cc1cccc(C(=O)Nc2ccc(N3CCOCC3=O)cc2)c1NC(=O)c1ccc(Cl)cc1 [Compound 1x, 2-(4-Chlorobenzamido)-3-methyl-N-(4-(3-oxomorpholino)phenyl)benzamide]	
